Laboratory results taken from ChEMBL document CHEMBL1201862, “PubChem BioAssay data set” (2004).
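Briefly, cells in 96-well plates were exposed to five compound concentrations for 48 h, and endpoints were estimated by linear interpolation. The concentration for 50% growth inhibition is given as GI50.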 Active and inactive are the calls of the source. Rule as the data show it: active = GI50 up to about 1.1 µM and inactive = higher.

Experiments:
Assay in all cases: DTP human tumour cell line panel, 48 h
EKVX = tested on: EKVX
SNB-19 = tested on: SNB-19
MDA-MB-435 = tested on: MDA-MB-435
MCF7 = tested on: MCF7
SK-MEL-2 = tested on: SK-MEL-2
SK-OV-3 = tested on: SK-OV-3
HCT-116 = tested on: HCT-116
UACC-257 = tested on: UACC-257
CCRF-CEM = tested on: CCRF-CEM
IGROV-1 = tested on: IGROV-1
M14 = tested on: M14
SNB-75 = tested on: SNB-75
OVCAR-3 = tested on: OVCAR-3
LOX IMVI = tested on: LOX IMVI
SR = tested on: SR
SN12C = tested on: SN12C
NCI-H460 = tested on: NCI-H460
CAKI-1 = tested on: CAKI-1
NCI-H522 = tested on: NCI-H522
RXF 393 = tested on: RXF 393

Measured: GI50

COc1cc2oc(=O)cc(C)c2c(OC)c1OC
inactive: EKVX 87.9 µM | SNB-19 > 100 µM | MDA-MB-435 > 100 µM | MCF7 > 100 µM | SK-MEL-2 > 100 µM | SK-OV-3 > 100 µM | HCT-116 > 100 µM | UACC-257 > 100 µM | CCRF-CEM > 100 µM | IGROV-1 > 100 µM | M14 > 100 µM | SNB-75 67.6 µM | OVCAR-3 > 100 µM | LOX IMVI > 100 µM | SR > 100 µM | SN12C > 100 µM

O=[N+]([O-])c1cc2[nH]nnc2c2nonc12
inactive: NCI-H460 35.1 µM | CAKI-1 29.7 µM | EKVX 65.8 µM | SNB-19 30.7 µM | MDA-MB-435 13.1 µM | MCF7 3.24 µM | SK-MEL-2 40.7 µM | NCI-H522 14.3 µM | SK-OV-3 46.8 µM | HCT-116 20.5 µM | UACC-257 22.9 µM | CCRF-CEM 14.4 µM | IGROV-1 51.9 µM | M14 22.4 µM | SNB-75 38.5 µM | OVCAR-3 33.5 µM | LOX IMVI 20.1 µM | SR 6.08 µM | SN12C 41.5 µM

O=C(Nc1ccc(Cl)cc1)c1cc(S(=O)(=O)Nc2nc3cccnc3[nH]2)c(SSc2cc(Cl)c(C(=O)Nc3ccc(Cl)cc3)cc2S(=O)(=O)Nc2nc3cccnc3[nH]2)cc1Cl
inactive: NCI-H460 > 100 µM | RXF 393 28.6 µM | CAKI-1 > 100 µM | EKVX > 100 µM | SNB-19 > 100 µM | MDA-MB-435 > 100 µM | MCF7 > 100 µM | SK-MEL-2 > 100 µM | NCI-H522 > 100 µM | SK-OV-3 > 100 µM | HCT-116 > 100 µM | UACC-257 > 100 µM | CCRF-CEM > 100 µM | IGROV-1 > 100 µM | M14 > 100 µM | SNB-75 > 100 µM | OVCAR-3 > 100 µM | LOX IMVI > 100 µM | SN12C > 100 µM

COC(=O)C1C(=O)N(C)C(=O)N2CCCC12 (stereo not given)
inactive: NCI-H460 > 100 µM | RXF 393 71.8 µM | CAKI-1 > 100 µM | EKVX > 100 µM | SNB-19 > 100 µM | MDA-MB-435 > 100 µM | MCF7 > 100 µM | SK-MEL-2 > 100 µM | NCI-H522 > 100 µM | SK-OV-3 > 100 µM | UACC-257 > 100 µM | CCRF-CEM > 100 µM | IGROV-1 > 100 µM | M14 > 100 µM | SNB-75 > 100 µM | OVCAR-3 > 100 µM | LOX IMVI > 100 µM

CC(=O)/C=C1/C(=O)C(CC(C)C)=C1CC(C)C
inactive: RXF 393 > 100 µM | CAKI-1 > 100 µM | EKVX > 100 µM | SNB-19 > 100 µM | MDA-MB-435 > 100 µM | MCF7 > 100 µM | SK-MEL-2 > 100 µM | NCI-H522 > 100 µM | SK-OV-3 > 100 µM | HCT-116 > 100 µM | UACC-257 > 100 µM | CCRF-CEM 53.8 µM | IGROV-1 > 100 µM | M14 > 100 µM | SNB-75 > 100 µM | LOX IMVI > 100 µM | SN12C > 100 µM

COC(=O)CCCC(=O)C1=NN(c2ccc(Cl)cc2)Cc2ccccc2N1
inactive: RXF 393 86.1 µM | CAKI-1 > 100 µM | EKVX 70.6 µM | SNB-19 > 100 µM | MDA-MB-435 > 100 µM | MCF7 75.9 µM | SK-MEL-2 > 100 µM | NCI-H522 54.7 µM | SK-OV-3 > 100 µM | HCT-116 > 100 µM | UACC-257 > 100 µM | CCRF-CEM > 100 µM | IGROV-1 > 100 µM | M14 > 100 µM | SNB-75 88.3 µM | OVCAR-3 93.8 µM | LOX IMVI > 100 µM | SN12C > 100 µM

CCN1CC2=C(NC(=S)NC2c2cc(OC)c(OC)c(OC)c2)/C(=C/c2cc(OC)c(OC)c(OC)c2)C1 (stereo not given)
inactive: NCI-H460 46.8 µM | RXF 393 33 µM | CAKI-1 19.4 µM | EKVX 15 µM | SNB-19 36.8 µM | MDA-MB-435 28.3 µM | MCF7 24.6 µM | SK-MEL-2 70.8 µM | NCI-H522 10.6 µM | SK-OV-3 > 100 µM | HCT-116 27.7 µM | UACC-257 59 µM | CCRF-CEM 37.4 µM | IGROV-1 24.4 µM | M14 16.6 µM | SNB-75 2.74 µM | OVCAR-3 67.5 µM | LOX IMVI 37.2 µM

N#C/C(C(=O)Nc1ccc(Cl)cc1)=C(/N)N1CCCC1
inactive: NCI-H460 > 100 µM | CAKI-1 > 100 µM | EKVX > 100 µM | SNB-19 > 100 µM | MDA-MB-435 > 100 µM | MCF7 > 100 µM | SK-MEL-2 > 100 µM | SK-OV-3 > 100 µM | HCT-116 > 100 µM | UACC-257 > 100 µM | CCRF-CEM > 100 µM | IGROV-1 > 100 µM | M14 > 100 µM | SNB-75 > 100 µM | OVCAR-3 > 100 µM | LOX IMVI > 100 µM | SR > 100 µM | SN12C > 100 µM

COc1cccc(-c2nc(-c3cnccn3)n(COCCO)n2)c1
inactive: NCI-H460 > 100 µM | RXF 393 > 100 µM | SNB-19 > 100 µM | MDA-MB-435 > 100 µM | MCF7 > 100 µM | NCI-H522 > 100 µM | SK-OV-3 > 100 µM | HCT-116 > 100 µM | UACC-257 > 100 µM | CCRF-CEM > 100 µM | IGROV-1 > 100 µM | M14 > 100 µM | OVCAR-3 > 100 µM | LOX IMVI > 100 µM | SR > 100 µM | SN12C > 100 µM

O=[N+]([O-])c1cccc2nc3ccccc3c(NCCCNc3c4ccccc4nc4cccc([N+](=O)[O-])c34)c12
active: NCI-H460 < 0.01 µM | RXF 393 0.0177 µM | CAKI-1 < 0.0215 µM | EKVX 0.0312 µM | SNB-19 0.0137 µM | MDA-MB-435 0.0167 µM | MCF7 0.0151 µM | SK-MEL-2 0.035 µM | NCI-H522 0.0146 µM | SK-OV-3 0.0982 µM | HCT-116 0.0103 µM | UACC-257 0.0556 µM | CCRF-CEM 0.0251 µM | IGROV-1 0.128 µM | M14 < 0.0177 µM | SNB-75 0.0328 µM | OVCAR-3 < 0.0258 µM | LOX IMVI 0.0977 µM | SN12C < 0.0169 µM

CC1=C(C(=O)N(C(C)C)C(C)C)CC(C(=O)N(C(C)C)C(C)C)=C(C)N1
inactive: NCI-H460 > 100 µM | RXF 393 > 100 µM | CAKI-1 > 100 µM | EKVX > 100 µM | SNB-19 > 100 µM | MDA-MB-435 79.8 µM | MCF7 > 100 µM | SK-MEL-2 > 100 µM | NCI-H522 > 100 µM | SK-OV-3 > 100 µM | HCT-116 > 100 µM | UACC-257 > 100 µM | CCRF-CEM > 100 µM | IGROV-1 > 100 µM | M14 > 100 µM | SNB-75 16.4 µM | OVCAR-3 > 100 µM | LOX IMVI > 100 µM | SN12C > 100 µM

CC(C)CC(=O)CC(C)[C@]1(CCCOCc2ccccc2)C(=O)N2CCC3(C[C@@]24CCC[C@H]41)OCCO3 (stereo not given in full)
inactive: NCI-H460 > 10 µM | CAKI-1 > 10 µM | EKVX > 10 µM | SNB-19 > 10 µM | MDA-MB-435 > 10 µM | MCF7 > 10 µM | SK-MEL-2 > 10 µM | NCI-H522 > 10 µM | SK-OV-3 > 10 µM | CCRF-CEM > 10 µM | IGROV-1 > 10 µM | M14 > 10 µM | OVCAR-3 > 10 µM | SR > 10 µM | SN12C > 10 µM

COc1cc2nc(-c3cccs3)nc(Nc3ccccc3C(=O)NN)c2cc1OC
inactive: NCI-H460 > 100 µM | CAKI-1 > 100 µM | EKVX > 100 µM | SNB-19 > 100 µM | MDA-MB-435 95.7 µM | MCF7 > 100 µM | SK-MEL-2 > 100 µM | NCI-H522 > 100 µM | SK-OV-3 > 100 µM | HCT-116 > 100 µM | UACC-257 > 100 µM | CCRF-CEM > 100 µM | IGROV-1 > 100 µM | M14 > 100 µM | SNB-75 > 100 µM | OVCAR-3 57.5 µM | LOX IMVI 51.5 µM | SR 23.6 µM | SN12C > 100 µM

Cc1ccc(C(=O)Nc2ccc(S(=O)(=O)O)c3cc(S(=O)(=O)O)cc(S(=O)(=O)O)c23)cc1NC(=O)Nc1cc(C(=O)Nc2ccc(S(=O)(=O)O)c3cc(S(=O)(=O)O)cc(S(=O)(=O)O)c23)ccc1C
inactive: NCI-H460 > 87.5 µM | CAKI-1 > 87.5 µM | SNB-19 > 87.5 µM | MDA-MB-435 > 87.5 µM | MCF7 > 87.5 µM | SK-MEL-2 > 87.5 µM | NCI-H522 > 87.5 µM | HCT-116 > 87.5 µM | UACC-257 > 87.5 µM | CCRF-CEM > 87.5 µM | IGROV-1 > 87.5 µM | M14 > 87.5 µM | SNB-75 > 87.5 µM | OVCAR-3 > 87.5 µM | LOX IMVI > 87.5 µM | SR > 87.5 µM | SN12C > 87.5 µM

Cc1nc(=O)c2cc(CN(C)c3ccc(C(=O)N[C@@H](CCC(=O)O)C(=O)O)s3)ccc2[nH]1 [RALTITREXED]
active: NCI-H460 0.041 µM | HCT-116 0.264 µM | M14 0.0931 µM | LOX IMVI 0.0303 µM | SR 0.0399 µM | SN12C 0.65 µM
inactive: CAKI-1 > 100 µM | EKVX > 100 µM | SNB-19 > 100 µM | MDA-MB-435 > 100 µM | MCF7 8.04 µM | SK-MEL-2 > 100 µM | NCI-H522 > 100 µM | SK-OV-3 > 100 µM | UACC-257 > 100 µM | IGROV-1 > 100 µM | SNB-75 6.79 µM | OVCAR-3 > 100 µM
